Data from patent US9828396B2, “Alkyne compounds for treatment of complement mediated disorders” (Achillion Pharmaceuticals, Inc., priority 2014, dated 2017).
pIC50: −log10 of the molar value.

Target: Human factor D (Homo sapiens (Human), UniProt P00746)
Assay: Human Factor D Assay
Type: biochemical
Conditions: Human factor D 80 nM, substrate Z-L-Lys-SBzl, assay of Example 12
Protocol: Example 12. Human Factor D Assay
Human factor D (purified from human serum, Complement Technology, Inc.) at 80 nM final concentration is incubated with test compound at various concentrations for 5 minutes at room temperature in 50 mM Tris, 1M NaCl, pH 7.5. A synthetic substrate Z-L-Lys-SBzl and DTNB (Ellman's reagent) are added to final concentrations of 100 μM each. The increase in color is recorded at OD405 nm in a microplate in kinetic mode over 30 minutes with 30 second time points in a spectrofluorimeter. IC50 values are calculated by non-linear regression from the percentage of inhibition of complement factor D activity as a function of test compound concentration.

Human factor D, sequence (P00746 26-253): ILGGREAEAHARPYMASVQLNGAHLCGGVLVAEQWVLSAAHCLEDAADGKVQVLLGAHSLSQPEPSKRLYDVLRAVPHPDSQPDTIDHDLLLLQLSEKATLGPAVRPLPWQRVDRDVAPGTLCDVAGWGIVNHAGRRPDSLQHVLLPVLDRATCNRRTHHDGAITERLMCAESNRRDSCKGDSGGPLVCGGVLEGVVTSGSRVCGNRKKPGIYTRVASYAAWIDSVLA

`C#Cc1ccc2c(C(C)=O)cn(CC(=O)N3C[C@H](F)C[C@H]3C(=O)NCc3cccc(Cl)c3F)c2c1` [Compound 1, (2S,4R)-1-(2-(3-acetyl-6-ethynyl-1H-indol-1-yl)acetyl)-N-(3-chloro-2-fluorobenzyl)-4-fluoropyrrolidine-2-carboxamide] showed a pIC50 greater than 6.00.
`CC(=O)c1cn(CC(=O)N2C[C@H](F)C[C@H]2C(=O)NCc2cccc(Cl)c2F)c2cc(C#CC(=O)O)ccc12` [Compound 2, 3-(3-acetyl-1-(2-((2S,4R)-2-(3-chloro-2-fluorobenzylcarbamoyl)-4-fluoropyrrolidin-1-yl)-2-oxoethyl)-1H-indol-6-yl)propiolic acid] gave a pIC50 greater than 6.00.
`CC(=O)c1cn(CC(=O)N2C[C@H](F)C[C@H]2C(=O)NCc2cccc(Cl)c2F)c2cc(C#C[Si](C)(C)C)ccc12` [Compound 3, (2S,4R)-1-(2-(3-acetyl-6-((trimethylsilyl)ethynyl)-1H-indol-1-yl)acetyl)-N-(3-chloro-2-fluorobenzyl)-4-fluoropyrrolidine-2-carboxamide] was tested, and the pIC50 was greater than 6.00.
Molecule `COC(=O)C#Cc1ccc2c(C(C)=O)cn(CC(=O)N3C[C@H](F)C[C@H]3C(=O)NCc3cccc(Cl)c3F)c2c1` [Compound 4, methyl 3-(3-acetyl-1-(2-((2S,4R)-2-(3-chloro-2-fluorobenzylcarbamoyl)-4-fluoropyrrolidin-1-yl)-2-oxoethyl)-1H-indol-6-yl)propiolate] has a pIC50 greater than 6.00.
In the case of `CC(=O)c1cn(CC(=O)N2C[C@H](F)C[C@H]2C(=O)NCc2cccc(Cl)c2F)c2cc(C#Cc3c[nH]c(=O)nc3N)ccc12` [Compound 5, (2S,4R)-1-(2-(3-acetyl-6-((4-amino-2-oxo-1,2-dihydropyrimidin-5-yl)ethynyl)-1H-indol-1-yl)acetyl)-N-(3-chloro-2-fluorobenzyl)-4-fluoropyrrolidine-2-carboxamide], the pIC50 was greater than 6.00.
`CC(=O)c1cn(CC(=O)N2C[C@H](F)C[C@H]2C(=O)NCc2cccc(Cl)c2F)c2ccc(C#CC(=O)O)cc12` [Compound 6, 3-(3-acetyl-1-(2-((2S,4R)-2-(3-chloro-2-fluorobenzylcarbamoyl)-4-fluoropyrrolidin-1-yl)-2-oxoethyl)-1H-indol-5-yl)propiolic acid] showed a pIC50 greater than 6.00.
`CC(=O)c1cn(CC(=O)N2C[C@H](F)C[C@H]2C(=O)NCc2cccc(Cl)c2F)c2ccc(C#Cc3c[nH]c(=O)nc3N)cc12` [Compound 7, (2S,4R)-1-(2-(3-acetyl-5-((4-amino-2-oxo-1,2-dihydropyrimidin-5-yl)ethynyl)-1H-indol-1-yl)acetyl)-N-(3-chloro-2-fluorobenzyl)-4-fluoropyrrolidine-2-carboxamide] gave a pIC50 greater than 6.00.
`CCS(=O)(=O)NC(=O)C#Cc1ccc2c(c1)c(C(C)=O)cn2CC(=O)N1C[C@H](F)C[C@H]1C(=O)NCc1cccc(Cl)c1F` [Compound 8, (2S,4R)-1-(2-(3-acetyl-5-(3-(ethylsulfonamido)-3-oxoprop-1-ynyl)-1H-indol-1-yl)acetyl)-N-(3-chloro-2-fluorobenzyl)-4-fluoropyrrolidine-2-carboxamide] gave a pIC50 greater than 6.00.
With `CC(=O)c1cn(CC(=O)N2C[C@H](F)C[C@H]2C(=O)NCc2cccc(Cl)c2F)c2ccc(C#Cc3ncccn3)cc12` [Compound 9, (2S,4R)-1-(2-(3-acetyl-5-(pyrimidin-2-ylethynyl)-1H-indol-1-yl)acetyl)-N-(3-chloro-2-fluorobenzyl)-4-fluoropyrrolidine-2-carboxamide] the pIC50 was greater than 6.00.
Molecule `CCS(=O)(=O)NC(=O)C#Cc1ccc2c(C(C)=O)cn(CC(=O)N3C[C@H](F)C[C@H]3C(=O)NCc3cccc(Cl)c3F)c2c1` [Compound 10, (2S,4R)-1-(2-(3-acetyl-6-(3-(ethylsulfonamido)-3-oxoprop-1-ynyl)-1H-indol-1-yl)acetyl)-N-(3-chloro-2-fluorobenzyl)-4-fluoropyrrolidine-2-carboxamide] has a pIC50 greater than 6.00.
In the case of `O=C(O)C#Cc1ccc2c(C(=O)C(F)(F)F)cn(CC(=O)N3C[C@H](F)C[C@H]3C(=O)NCc3cccc(Cl)c3F)c2c1` [Compound 11, 3-(1-(2-((2S,4R)-2-(3-chloro-2-fluorobenzylcarbamoyl)-4-fluoropyrrolidin-1-yl)-2-oxoethyl)-3-(2,2,2-trifluoroacetyl)-1H-indol-6-yl)propiolic acid], the pIC50 was greater than 6.00.
In the case of `CC(=O)c1cn(CC(=O)N2C[C@H](F)C[C@H]2C(=O)NCc2cccc(Cl)c2F)c2ccc(C#Cc3ncc(O)cn3)cc12` [Compound 13, (2S,4R)-1-(2-(3-acetyl-5-((5-hydroxypyrimidin-2-yl)ethynyl)-1H-indol-1-yl)acetyl)-N-(3-chloro-2-fluorobenzyl)-4-fluoropyrrolidine-2-carboxamide], the pIC50 was greater than 6.00.
Work on `CC(=O)c1cn(CC(=O)N2C[C@H](F)C[C@H]2C(=O)NCc2cccc(Cl)c2F)c2ccc(C#Cc3ccccc3)cc12` [Compound 14, (2S,4R)-1-(2-(3-acetyl-5-(phenylethynyl)-1H-indol-1-yl)acetyl)-N-(3-chloro-2-fluorobenzyl)-4-fluoropyrrolidine-2-carboxamide] yielded a pIC50 greater than 6.00.
`C#Cc1cccc(NC(=O)[C@@H]2C[C@@H](F)CN2C(=O)Cn2nc(C(N)=O)c3ccncc32)c1F` [Compound 15, 1-(2-((2S,4R)-2-(3-ethynyl-2-fluorophenylcarbamoyl)-4-fluoropyrrolidin-1-yl)-2-oxoethyl)-1H-pyrazolo[3,4-c]pyridine-3-carboxamide] was tested, and the pIC50 was greater than 6.00.
`CC(=O)c1cn(CC(=O)N2C[C@H](F)C[C@H]2C(=O)NCc2cccc(Cl)c2F)c2ccc(C#Cc3cncnc3)cc12` [Compound 16, (2S,4R)-1-(2-(3-acetyl-5-(pyrimidin-5-ylethynyl)-1H-indol-1-yl)acetyl)-N-(3-chloro-2-fluorobenzyl)-4-fluoropyrrolidine-2-carboxamide] was tested, and the pIC50 was greater than 6.00.
Molecule `CC(=O)c1cn(CC(=O)N2C[C@H](F)C[C@H]2C(=O)NCc2cccc(Cl)c2F)c2ccc(C#Cc3ccncc3)cc12` [Compound 17, (2S,4R)-1-(2-(3-acetyl-5-(pyridin-4-ylethynyl)-1H-indol-1-yl)acetyl)-N-(3-chloro-2-fluorobenzyl)-4-fluoropyrrolidine-2-carboxamide] has a pIC50 greater than 6.00.
`CC(=O)c1cn(CC(=O)N2C[C@H](F)C[C@H]2C(=O)NCc2cccc(Cl)c2F)c2ccc(C#Cc3cnsc3)cc12` [Compound 18, (2S,4R)-1-(2-(3-acetyl-5-(isothiazol-4-ylethynyl)-1H-indol-1-yl)acetyl)-N-(3-chloro-2-fluorobenzyl)-4-fluoropyrrolidine-2-carboxamide] gave a pIC50 greater than 6.00.
For `CC(=O)c1cn(CC(=O)N2C[C@H](F)C[C@H]2C(=O)NCc2cccc(Cl)c2F)c2ccc(C#Cc3ccccn3)cc12` [Compound 19, (2S,4R)-1-(2-(3-acetyl-5-(pyridin-2-ylethynyl)-1H-indol-1-yl)acetyl)-N-(3-chloro-2-fluorobenzyl)-4-fluoropyrrolidine-2-carboxamide], the pIC50 was greater than 6.00.
For `NC(=O)c1nn(CC(=O)N2C[C@H](F)C[C@H]2C(=O)NCc2cccc(Cl)c2F)c2ccc(C#Cc3ncccn3)cc12` [Compound 20, 1-(2-((2S,4R)-2-(3-chloro-2-fluorobenzylcarbamoyl)-4-fluoropyrrolidin-1-yl)-2-oxoethyl)-5-(pyrimidin-2-ylethynyl)-1H-indazole-3-carboxamide], the pIC50 was greater than 6.00.
With `CC(=O)c1cn(CC(=O)N2[C@@H]3C[C@@H]3C[C@H]2C(=O)Nc2cccc(Br)n2)c2ccc(C#Cc3ncccn3)cc12` [Compound 21, (1R,3S,5R)-2-(2-(3-acetyl-5-(pyrimidin-2-ylethynyl)-1H-indol-1-yl)acetyl)-N-(6-bromopyridin-2-yl)-2-azabicyclo[3.1.0]hexane-3-carboxamide] the pIC50 was greater than 6.00.
In the case of `NC(=O)c1nn(CC(=O)N2C[C@H](F)C[C@H]2C(=O)Nc2cccc(-c3ccccc3Cl)c2F)c2ccc(C#Cc3ncccn3)cc12` [Compound 22, 1-(2-((2S,4R)-2-(2′-chloro-2-fluorobiphenyl-3-ylcarbamoyl)-4-fluoropyrrolidin-1-yl)-2-oxoethyl)-5-(pyrimidin-2-ylethynyl)-1H-indazole-3-carboxamide], the pIC50 was greater than 6.00.
For `NC(=O)c1nn(CC(=O)N2C[C@H](F)C[C@H]2C(=O)NCc2cccc(Cl)c2F)c2ccc(C#Cc3ccccn3)cc12` [Compound 23, 1-(2-((2S,4R)-2-(3-chloro-2-fluorobenzylcarbamoyl)-4-fluoropyrrolidin-1-yl)-2-oxoethyl)-5-(pyridin-2-ylethynyl)-1H-indazole-3-carboxamide], the pIC50 was greater than 6.00.
`CC(=O)c1cn(CC(=O)N2C[C@H](F)C[C@H]2C(=O)NCc2cccc(Cl)c2F)c2ccc(C#Cc3c[nH]nc3C#N)cc12` [Compound 24, (2S,4R)-1-(2-(3-acetyl-5-((3-cyano-1H-pyrazol-4-yl)ethynyl)-1H-indol-1-yl)acetyl)-N-(3-chloro-2-fluorobenzyl)-4-fluoropyrrolidine-2-carboxamide] gave a pIC50 greater than 6.00.
`NC(=O)c1nn(CC(=O)N2C[C@H](F)C[C@H]2C(=O)Nc2cccc(Cl)c2F)c2ccc(C#Cc3ncccn3)cc12` [Compound 25, 1-(2-((2S,4R)-2-(3-chloro-2-fluorophenylcarbamoyl)-4-fluoropyrrolidin-1-yl)-2-oxoethyl)-5-(pyrimidin-2-ylethynyl)-1H-indazole-3-carboxamide] gave a pIC50 greater than 6.00.
Work on `CC(=O)c1cn(CC(=O)N2C[C@H](F)C[C@H]2C(=O)NCc2cccc(Cl)c2F)c2ccc(C#Cc3cnccn3)cc12` [Compound 26, (2S,4R)-1-(2-(3-acetyl-5-(pyrazin-2-ylethynyl)-1H-indol-1-yl)acetyl)-N-(3-chloro-2-fluorobenzyl)-4-fluoropyrrolidine-2-carboxamide] yielded a pIC50 greater than 6.00.
`NC(=O)c1nn(CC(=O)N2[C@@H]3C[C@@H]3C[C@H]2C(=O)Nc2cccc(-c3ccccc3Cl)c2F)c2ccc(C#Cc3ncccn3)cc12` [Compound 27, 1-(2-((1R,3S,5R)-3-(2′ chloro-2-fluorobiphenyl-3-ylcarbamoyl)-2-azabicyclo[3.1.0]hexan-2-yl)-2-oxoethyl)-5-(pyrimidin-2-ylethynyl)-1H-indazole-3-carboxamide] gave a pIC50 greater than 6.00.
